| melting point [°C] | Structure (SMILES) |
| --- | --- |
| 149 to 150 | CC1(C)Cc2nc(C3CCCC3)c(C(F)c3ccc(C(F)(F)F)cc3)c(-c3ccc(F)c(F)c3)c2C(O)C1 (stereo unspecified) |
| 202 | CC(C)(C)OC(=O)NC1CCN(CCn2c(=O)ccc3ccc(C#N)cc32)CC1 |
| 124 to 127 | CCCCc1nc2cccc(C#N)c2n1Cc1ccccc1Cl |
| 139 to 141 | CCCNC(=O)CCCCCn1c(CCC)nc2c(N)nc3ccccc3c21 |
| 89 to 90 | Cc1ccc2c(c1)C(CCCCOS(C)(=O)=O)C(=O)N2 (stereo unspecified) |
| 145 to 146 | Cc1oc2ccccc2c1C(=O)N(Cc1ccccc1)Cc1ccc2c(Br)c(OCC#N)ccc2c1 |
| 188 to 192 | COC(=O)c1ccc(-c2ccc(Br)c3nsnc23)cc1 |
| 100 to 109 | O=C1c2c(O)cccc2OC12CC2 |
| 100 to 101 | Cc1cc(I)cc2c1oc(=O)n2C |
| 237 to 239 | CCCCOc1ccc(/C=C/c2nc3c([nH]2)c(=O)n(CCC)c(=O)n3CCC)cc1 |
| 143 to 144 | COc1cc(COc2ncccc2CO)ccc1OCc1nc(-c2ccccc2)oc1C |
| 98 | Cc1coc(NC(=O)CCCCl)n1 |
| 294 to 297 | Fc1ccc2nc[nH]c(=S)c2c1 |
| 273 to 276 | Cn1cnc2nc(NC(=O)c3ccccc3)nn2c1=S |
| 197 | O=c1[nH]c2ccccc2n1CCCN1CCN(C(c2ccc(F)cc2)c2ccc(F)cc2)CC1 |
| 234 | O=C1NC(=O)C(=Cc2ccc(OCCNc3ncccn3)cc2)S1 |
| 151 to 153 | O=C(O)c1ccccc1C(=O)NCCCSc1ccncc1 |
| 134 | COC(=O)C1CN(C(=O)c2cc(OC)c(OC)c(OC)c2)CCN1C(=O)C1=Cc2cc(OC)c(OC)cc2CCC1 (stereo unspecified) |
| 104 to 106 | CCc1cccc(CC)c1NC(=O)C1c2ccccc2COc2c(C)ccc(C)c21 (stereo unspecified) |
| > 300 | Cn1ncc2[nH]c3ccc(Cc4cccc(C(N)=O)c4)cc3c(=O)c21 |
| 154 to 156 | COC(=O)c1nc(-c2ccc(C)c(C)c2)cc(N)c1Cl |
| 151 to 152 | CCOC(=O)C(=O)CC(=O)c1cn(Cc2ccc(F)cc2)c2cc(F)ccc2c1=O |

| melting point [°C] | Structure (SMILES) |
| --- | --- |
| 101 to 105 | CN(C)CCc1cccc(N2C(=O)N(c3ccc(Cl)cc3Cl)Cc3cnc(Nc4ccccc4)nc32)c1 |
| 69 to 70 | O=C(CCc1ccc(F)cc1)Cn1ccnc1 |
| 83 to 85 | O=C(NCCCCSc1ccncc1)c1ccccc1O |
| 120 to 121 | COc1cc2c(cc1OC)C(C)N(C(=O)Cc1cccc([N+](=O)[O-])c1)CC2 (stereo unspecified) |
| 288 to 290 | Cn1ncc2c(c1=O)S(=O)(=O)CCNC2Cc1ccccc1 (stereo unspecified) |
| 200 to 202 | c1ccc(-c2cn3cccnc3n2)cc1 |
| 63 to 65 | C=CCCOc1cc2c(c(Cl)c1Cl)C(=O)C(C)(C1CCCC1)C2 (stereo unspecified) |
| 181 to 185 | Cc1cccc(N2CC(C)C(N)=N2)n1 (stereo unspecified) |
| 177 | Nc1ccc(N2C(=O)c3cccc([N+](=O)[O-])c3C2=O)cc1 |
| 139 to 140 | COc1ccc(C2(O)OC(=O)C(c3cc(OC)c4c(c3)OCO4)=C2CC2CCCC2)cc1 (stereo unspecified) |
| 79 to 81 | Cc1ccc(S(=O)(=O)N2CCCC2C(=O)NC(Cc2ccc(OCC(=O)OCc3ccccc3)cc2)C(=O)O)cc1 (stereo unspecified) |
| 177 | Clc1nccc(N2CCC3(CC2)COc2ccccc23)c1Cl |
| 112 to 113 | CCCNS(=O)(=O)c1nc2ccc(OCC)cc2s1 |
| 60 to 63 | Cc1ccc(C)c(SCCCCCCCC(=O)O)c1 |
| 148 to 150 | Clc1ccc(CN2CC3(COc4cc5c(cc43)OCO5)c3ccccc32)o1 (stereo unspecified) |
| 122 to 124 | CCOC(=O)c1c(Cn2cncn2)nc2cc(OC)c(OC)cc2c1-c1ccc(O)c(O)c1 |
| 146 to 147 | CCCc1nnc(/C=C/c2cn(Cc3ccccc3)nc2OCc2ccc(OCc3nc(-c4ccco4)oc3C)c(OC)c2)o1 |
| 51 to 53 | C(#Cc1cccc2ccccc12)c1ccccc1 |
| 189 to 191 | Cc1ccc(S(=O)(=O)N(c2ccc(Cl)cc2C(N)=S)C(C)C)cc1 |
| 130 to 131 | COc1cc(C(=O)O)ccc1OCCCCCOc1nc2ccccc2s1 |
| 176 to 177 | Cc1cc(Nc2ccnc(Nc3ccc(S(=O)(=O)N(C)C4CCN(Cc5nccs5)CC4)cc3)n2)ccc1F |
| 138 to 142 | CCOC(=O)NN(C)c1cc(C)c(-c2ccc(C#N)cc2)nn1 |

| melting point [°C] | Structure (SMILES) |
| --- | --- |
| 127 to 129 | CCc1nc2c(cnn2CC)c(NC2CCOCC2)c1CNC(=O)c1cccc(C(=O)NCc2ccc(OC)c(-c3cccc(CN4CC(C)NC(C)C4)c3)c2)c1 (stereo unspecified) |
| 205 to 210 | CN1CCC(=C2c3ccccc3COc3ccc(C(=O)O)cc32)CC1 |
| 200 | Cc1cc(NC(=O)Nc2c(C)cccc2C)no1 |
| 76 to 77 | Cc1cc(C)c2c(c1)OC(=O)C2c1ccc(C(C)C)cc1 (stereo unspecified) |
| 105 to 106 | O=c1c2cccnc2sc(=Nc2ccccc2)n1Cc1ccccc1 |
| 178 to 180 | Fc1ccc(C2CC3CCC(C3)C23CO3)cc1 (stereo unspecified) |
| 124 to 125 | CCC(=CC(CNC(C)=O)=NO)C(C)[N+](=O)[O-] (stereo unspecified) |
| > 250 | Cn1ncc(C(=O)N2CCC2)c1C(=O)Nc1cc2nc(-c3ccccc3)nn2cc1F |
| 93 | COCC(=O)C1CCC2C3CCC4CC(OC(C)=O)CCC4(C)C3C(=O)CC12C (stereo unspecified) |
| 60 | C[C@@H]1NC(=O)OC1(C)C |
| 120 to 122 | CC(C)(C)OC(=O)N1CCC(c2ccc(N3C[C@@H](CCO)OC3=O)cc2F)CC1 |
| 112 to 113 | O=C(NCCCSc1ccncc1)c1cccs1 |
| 177 to 178 | COc1ccc(-c2nc(Br)c(C(F)(F)F)[nH]2)cc1 |
| 179 to 180 | CCCN(CCC)c1nsc(NC(=O)NC)c1C#N |
| 227 to 228 | CCCn1c(=O)c2c(nc(C=Cc3cc(OC)c(OC)cc3S(=O)(=O)N(CC)CC)n2C)n(CCC)c1=O |
| 218 to 219 | C(=C(c1ccccc1)c1ccccc1)c1ccc(N(c2ccccc2)c2ccc(N(c3ccccc3)c3ccccc3)cc2)cc1 |
| 181 | Cc1ccc(C(=O)c2ccc3[nH]c(=O)nc(-c4cccc(Cl)c4)c3c2)cc1 |
| 238 to 241 | CC1CC(=O)NN=C1c1ccc2c(c1)C(C)(C)CC(=O)N2C (stereo unspecified) |
| 172 to 174 | Cc1nc(-n2ccc(OCCC3CC3)cc2=O)sc1C(=O)NCc1ccc(F)cc1 |
| 224 to 228 | Clc1nnc(Cl)c2cc3ccccc3cc12 |
| 324 to 326 | COC[C@H]1CC[C@@H](n2c(=O)[nH]c3c(C(N)=O)nc(-c4cccc(O)c4)nc32)CC1 |
| > 260 | Nc1ccc(-c2cnc3[nH]c(=O)n(CC4CCOCC4)c3n2)cn1 |

| Structure (SMILES) | melting point [°C] |
| --- | --- |
| Cc1cnc2c(Br)c(NC3=NCCN3)ccc2n1 | 260 |
| CNC(=O)ON=C1CCOc2ccccc21 | 123 to 126 |
| CCCc1c(C(=O)C(C)C)c2ccc(C(=O)O)cc2n1Cc1ccccc1Br | 193 to 194 |
| Cc1cc(C2=NOC(c3cc(Cl)cc(Cl)c3)(C(F)(F)F)C2)ccc1C(=O)NC1(Cl)N=CC=CN1 (stereo unspecified) | 231 to 234 |
| COc1cc(C2C3=C(COC3=O)Nc3ccc4nn[nH]c4c32)cc(OC)c1OC (stereo unspecified) | 324 to 325 |

Reference: a melting point compilation (Tetko et al.; mined from patent text by program, amines drawn as free bases though some values may be those of a salt)
